Measurements as given in ChEMBL document CHEMBL1135906 (J Med Chem, 2002).

Legend:
[1] = target: Prostaglandin G/H synthase 1 (Homo sapiens, UniProt P23219); assay: Inhibition of human purified Prostaglandin G/H synthase 1
[2] = target: T1, Prostaglandin G/H synthase 2 (Homo sapiens, UniProt P35354); assay: Inhibition of human purified Prostaglandin G/H synthase 2
T1 sequence (P35354 whole entry): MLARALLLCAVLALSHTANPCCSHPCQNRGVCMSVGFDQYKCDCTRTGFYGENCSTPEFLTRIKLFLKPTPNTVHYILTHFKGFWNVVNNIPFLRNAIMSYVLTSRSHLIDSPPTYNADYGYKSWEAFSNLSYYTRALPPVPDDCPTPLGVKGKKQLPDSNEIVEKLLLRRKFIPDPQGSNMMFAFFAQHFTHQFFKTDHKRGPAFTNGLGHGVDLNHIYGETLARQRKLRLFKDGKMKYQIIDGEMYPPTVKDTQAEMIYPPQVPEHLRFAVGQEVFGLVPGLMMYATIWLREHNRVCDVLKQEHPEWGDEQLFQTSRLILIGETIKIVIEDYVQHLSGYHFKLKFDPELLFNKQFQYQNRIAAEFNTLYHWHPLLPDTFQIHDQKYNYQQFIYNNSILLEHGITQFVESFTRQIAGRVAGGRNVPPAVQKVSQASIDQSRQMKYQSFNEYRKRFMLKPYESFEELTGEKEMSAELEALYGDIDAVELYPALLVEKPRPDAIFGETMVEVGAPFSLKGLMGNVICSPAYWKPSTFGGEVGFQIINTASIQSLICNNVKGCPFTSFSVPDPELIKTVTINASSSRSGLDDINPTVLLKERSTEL

Rattus norvegicus [3] = species: Rattus norvegicus; assay: animal or person; conditions: po
Description: The compound was tested in vivo for activity against adjuvant-induced arthritis in rat after peroral administration after peroral administration

Rattus norvegicus [4] = assay: The compound was tested in vivo for gastric ulcerogenic activity in rat after peroral administration; type: functional, Stomach
Rattus norvegicus [5] = assay: The compound was tested in vivo for activity against carrageenan induced paw edema in rat after peroral administration; type: functional; conditions: po
Rattus norvegicus [6] = assay: The compound was tested in vivo for activity against yeast -induced hyperthermia in rat after peroral administration; type: functional; conditions: po
Rattus norvegicus [7] = assay: The compound was tested in vivo for activity against adjuvant-induced arthritis in rat after peroral administration; type: functional; conditions: po
Rattus norvegicus [8] = assay: The compound was tested in vivo for activity against yeast -induced hyperalgesia in rat after peroral administration; type: functional; conditions: po
Rattus norvegicus [9] = assay: The effective dose in vivo for activity against carrageenan induced paw edema in rat after administering perorally; type: functional
Rattus norvegicus [10] = assay: Under dose in vivo for activity against carrageenan induced paw edema in rat after administering perorally; type: functional

Prostaglandin G/H synthase 1, sequence (P23219 whole entry): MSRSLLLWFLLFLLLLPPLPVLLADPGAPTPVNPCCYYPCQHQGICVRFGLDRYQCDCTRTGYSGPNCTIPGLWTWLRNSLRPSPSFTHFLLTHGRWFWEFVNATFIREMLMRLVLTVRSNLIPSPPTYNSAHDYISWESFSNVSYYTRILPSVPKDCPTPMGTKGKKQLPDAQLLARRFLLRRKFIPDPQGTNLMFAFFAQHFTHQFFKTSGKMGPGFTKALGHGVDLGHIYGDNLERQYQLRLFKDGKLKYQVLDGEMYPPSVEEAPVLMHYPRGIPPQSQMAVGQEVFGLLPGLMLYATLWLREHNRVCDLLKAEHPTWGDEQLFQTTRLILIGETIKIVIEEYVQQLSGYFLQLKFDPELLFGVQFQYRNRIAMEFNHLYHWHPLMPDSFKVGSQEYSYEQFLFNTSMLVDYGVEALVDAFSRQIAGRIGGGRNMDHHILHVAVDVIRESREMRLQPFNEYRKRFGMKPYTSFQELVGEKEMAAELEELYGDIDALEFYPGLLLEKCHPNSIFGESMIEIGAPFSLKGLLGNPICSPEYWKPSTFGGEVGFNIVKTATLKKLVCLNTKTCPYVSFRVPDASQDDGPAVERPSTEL

| Structure (SMILES) | IC50 [1] | IC50 [2] | other results |
| --- | --- | --- | --- |
| Cc1nc(C2CCCCC2)c(-c2ccc(S(N)(=O)=O)c(O)c2)o1 | > 100 µM | 19.7 µM |  |
| Cc1ccc(-c2cc(C(F)(F)F)nn2-c2ccc(S(N)(=O)=O)cc2)cc1 [CELECOXIB] |  |  | ED50 (Rattus norvegicus [3]): 0.37 mg/kg; UD50 (Rattus norvegicus [4]): >200 mg/kg; ED50 (Rattus norvegicus [5]): 2.8 mg/kg |
| Cc1nc(C2CCCCC2)c(-c2ccc(S(N)(=O)=O)c(C)c2)o1 | > 100 µM |  |  |
| Cc1nc(C2CCCCC2)c(-c2ccc(S(N)(=O)=O)c(N)c2)o1 | > 100 µM | 0.93 µM |  |
| COc1ccc2c(c1)c(CC(=O)O)c(C)n2C(=O)c1ccc(Cl)cc1 [INDOMETHACIN] |  |  | ED50 (Rattus norvegicus [6]): 1.4 mg/kg; ED50 (Rattus norvegicus [7]): 0.13 mg/kg; UD50 (Rattus norvegicus [4]): 3.4 mg/kg; ED50 (Rattus norvegicus [8]): 3.1 mg/kg; ED50 (Rattus norvegicus [5]): 1.6 mg/kg |
| Cc1nc(C2CCCCC2)c(-c2ccc(S(N)(=O)=O)c(F)c2)o1 [TILMACOXIB] | > 100 µM | 0.085 µM | ED50 (Rattus norvegicus [9]): 4.4 mg kg-1 [middle of 4 runs]; UD50 (Rattus norvegicus [10]): >300 mg/kg |
| Cc1nc(C2CCCCC2)c(-c2ccc(S(N)(=O)=O)c(Cl)c2)o1 | > 100 µM |  |  |
| COc1cc(-c2oc(C)nc2C2CCCCC2)ccc1S(N)(=O)=O | > 100 µM | > 100 µM |  |
| CCc1nc(C2CCCCC2)c(-c2ccc(S(N)(=O)=O)c(F)c2)o1 | 47 µM | 0.12 µM |  |

Continued by falling IC50 [1], values first:

| IC50 [1] | IC50 [2] | Structure (SMILES) | other results |
| --- | --- | --- | --- |
| 40 µM | 0.04 µM | Cc1nc(-c2ccc(F)cc2)c(-c2ccc(S(N)(=O)=O)c(F)c2)o1 |  |
| 29.7 µM | 0.6 µM | CC(C)c1nc(C2CCCCC2)c(-c2ccc(S(N)(=O)=O)c(F)c2)o1 |  |
| 25 µM | 0.026 µM | Cc1nc(-c2ccc(C)s2)c(-c2ccc(S(N)(=O)=O)c(F)c2)o1 |  |
| 1.8 µM | 0.012 µM | Cc1nc(-c2ccc(C)s2)c(-c2ccc(S(N)(=O)=O)cc2)o1 |  |
